# Data published in EP0168350B1, “Certain ring-fused pyrazolo [3,4-d]-pyridin-3-one derivatives” (CIBA-GEIGY AG, priority 1984, dated 1986).
# Where a name gives a salt, the structure may show the parent alone.
# Legend:
# benzodiazepine receptor = assay: in vitro benzodiazepine receptor binding assay (displacement of tritiated flunitrazepam); settings: concentration inhibiting specific binding of 0.5 nM tritiated flunitrazepam by 50 %; synaptosomal membranes from rat fore-brain, pH 7.5
# Procedure: The benzodiazepine receptor binding properties indicate of the nervous system regulatory activity of said new compounds are determined in the receptor binding assay in vitro, e.g. similarly to that in Nature 266, 732 ( 977) or Proc. Nat. Acad. Sci. USA 74, 3805 (1977). When tritiated flunitrazepam is used, the interaction of other drugs with said receptor can be readily assessed thus; Synaptosnal membranes from rat fore-brain are incubated at 0-5 for 30 minutes with 0.5 nM tritiated flunitrazepam and various concentrations of the test substance in a buffer medium maintained at pH 7.5. Solutions of the various concentrations of test substance are prepared by dilution of a […] stock solution in dimethylacetamide-ethanol (1:10) with 50 mM pH 7.5 Tris-HCI buffer. The membranes, containing the receptors with various amounts of tritiated flunitrazepam, are filtered onto glass fiber filters, which are then analyzed in a liquid scintillation counter. The concentration of the compounds of this invention, required to inhibit the specific binding of 0.5 nM of tritiated flunitrazepam by 50 %, the ICso, is determined graphically.
# male Wistar rats = assay: Cook-Davidson conflict procedure for antianxiety effects; type: in vivo, rat; settings: dose of about 10 mg/kg p.o.
# Excerpt: Anxiolytic effects are observed, for example, according to the Cook-Davidson conflict procedure, using male Wistar rats which are maintained at 80 % of normal body weight by dietary-, but not water-restriction. They are trained to press a lever within a conditioning chamber, also containing a liquid dipper, a house light, a speaker and a grid-floor. Both lever and grid are connected to an electrical shock source and the chamber is situated in a sound-attenuated room in which a white noise-source is activated during testing, in order to mask any extraneous auditory cues. Each session of 47 minutes duration consists of two alternating schedules. The first is a Variable Interval (VI) schedule of 30 seconds, lasting for 5 minutes, during which a sweetened, condensed milk reinforcement is delivered following the first lever-press after an average of 30 seconds have elapsed, and a drug-induced decrement of this performance is taken as an indication of a neurological deficit. Immediately following the VI-schedule both a 1000 Hz tone and a light-cue are activated, indicating the commencement of the second Fixed Ration (FR) schedule, lasting for 2 minutes, wherein the milk reinforcement is delivered concomitant with an electric foot shock immediately following the tenth response, thereby establishing a conflict situation. The intensity of said shock ranges between 2.0 and 3.6 mA, varying with each animal, in order to adjust them to about 25-100 responses during this schedule over the entire session. A drug-induced enhancement of performance during the FR-schedule is taken as indication of antianxiety effects. This increased performance is measured by the increased number of electric shocks taken during six FR sessions lasting 2 minutes each.
SMILES,IC50 (benzodiazepine receptor),active in the Cook-Davidson test for antianxiety effects (male Wistar rats)
"CC1CCc2[nH]cc3c(=O)n(-c4ccc(Cl)cc4)nc-3c2C1.Cl (stereo not shown) [Example 8e, 2-p-chlorophenyl-2,3,6,7,8,9-hexahydro-8-methylpyrazolo[4,3-c]-quinolin-3(5H)-one hydrochloride]",~1 nM,active
"COc1ccc(-n2nc3c4c([nH]cc-3c2=O)CCCC4)cc1 [Example 12c, 2-(4-methoxyphenyl)-2,3,6,7,8,9-hexahydropyrazolo[4,3-c]quinolin-3(5H)-one]",~0.6 nM,–
"O=c1c2c[nH]c3c(c-2nn1-c1ccccc1)CCC3 [Example 7b, 2-phenyl-2,3,5,6,7,8-hexahydrocyclopenta[b]pyrazolo[3,4-d]pyridin-3-one]",~1.5 nM,–
"O=C(Nc1ccccn1)c1cnc2c(c1O)CSCC2 [5H-7,8-dihydro-4-hydroxy-3-(N-2-pyridylcarbamoyl)thiopyrano[4,3-b]pyridine]",~8 nM,–
"Cl.O=c1c2c[nH]c3c(c-2nn1-c1ccc(Cl)cc1)CCCC3 [Example 8a, 2-p-chlorophenyl-2,3,6,7,8,9-hexahydropyrazolo[4,3-c]quinolin-3(5H)-one hydrochloride]",~3.5 nM,active
"O=c1c2c[nH]c3c(c-2nn1-c1ccc(Cl)cc1)CSCC3 [Example 3a, 2-p-chlorophenyl-2,3,5,6,7,9-hexahydrothiopyrano[4,3-b]pyrazolo[3,4-d]pyridine-3-one]",~0.35 nM,–
"O=c1c2c[nH]c3c(c-2nn1-c1ccc(Cl)cc1)CCC3 [Example 7a, 2-p-chlorophenyl-2,3,5,6,7,8-hexahydrocyclopenta[b]pyrazolo[3,4-d]pyridin-3-one]",~0.5 nM,–
"O=c1c2c[nH]c3c(c-2nn1-c1ccc(Cl)cc1)COCC3 [Example 4a, 2-p-chlorophenyl-2,3,5,6,7,9-hexahydropyrano[4,3-b]pyrazolo[3,4-d]pyridin-3-one]",~0.9 nM,active
"O=c1c2c[nH]c3c(c-2nn1-c1ccc(Cl)cc1)CCCCC3 [Example 9a, 2-p-chlorophenyl-2,3,5,6,7,8,9,10-ocathydrocyclohepta[b]pyrazolo[3,4-d]pyridin-3-one hydrochloride]",~0.8 nM,active
